Values belong to the molecule of their own block, whether it stands above or below them. Ends that are not written are not given here.
Key:
[1] = system: TNF-α production by RAW264.7 macrophage cells; experiment: LPS-stimulated TNF-α production, ELISA of culture supernatants; format: cell-based; details: 10 μg/ml LPS, 1 to 100 μM peptide, 24 hours
Experimental: In order to determine the effect of bc peptides on the production of inflammatory cytokines, RAW264.7 macrophage cells were stimulated in culture with 10 μg/ml bacterial lipopolysaccharide (LPS) to produce the inflammatory cytokine tumor necrosis factor-α (TNF-α) (see […] et al., J. Immunol. 153:1674 (1994) and Tonetti et al., Biochem. Biophys. Res. Comm. 230:636-640 (1997)), either in the absence or presence (1 to 100 μM) of test peptide. Following incubation for 24 hours, the amount of TNF-α in the culture supernatents was determined by ELISA.

recombinant hsc70 = biological target: T1, recombinant hsc70 (Bos taurus, UniProt P19120); experiment: hsc70 binding ELISA / competition with biotinylated-2702.75-84
T1 construct: purchased Stressgen, Victoria, Canada
Experimental: To determine if bc peptides are capable of binding to hsc70, protein binding assays were performed. Specifically, peptide 2702.75-84 was synthesized in a biotinylated form with biotin attached to the N-terminus via a six carbon spacer. ELISA plates (Nunc Maxisorb, Nunc, USA) were coated with 100 ng/ml of recombinant hsc70 (Stressgen, Victoria, Canada) in 100 mM Na-citrate buffer, pH 4.0 overnight at 4° C. Subsequently, remaining binding sites were blocked by incubating the plates with PBS/0.1% Tween 20 (PBS/Tween; Sigma) for 2 hours at room temperature. Unbound material was removed by washing the plates three times with PBS/Tween. Following the addition of biotinylated 2702.75-84 in PBS/Tween/1% DMSO, the plates were incubated for 2 hours at room temperature, washed three times, incubated with 0.1 μg/ml streptavidin conjugated to horseradish peroxidase (streptavidin-HRP) (Jackson ImmunoResearch Laboratories, West Grove, Pa.) and washed again. Bound streptavidin-HRP was detected using 3 mg/ml o-phenylenediamine (OPD; Sigma) in substrate buffer (SangStat, Menlo Park, Calif.). The reaction was stopped by addition of 1M HCl and absorbance (OD490-OD605) was measured using an ELISA plate reader. Binding of unlabeled peptide was measured in a competition assay. […] Bound biotinylated-2702.75-84 was then detected as described above.

[2] = system: T-cell proliferation (spleen cells isolated from CBA mice stimulated with anti-CD3 monoclonal antibody); experiment: Antiproliferative activity: anti-CD3 stimulated spleen cells, [3H]-TdR incorporation; format: cell-based, mouse; details: 3 days
Excerpt: Adult 6-8 week old male C57BL6/J (B6, […]), Balb/c(H-2^d) and CBA/J (H-2^k) mice were purchased from the Jackson Laboratory, Bar Harbor, Me. They were kept and maintained in the animal facility in the SangStat Medical Corporation according to NIH guidelines and regulations of the Department of Health.
Peptides were synthesized at synt:em (Nimes, France) using an automated peptide synthesizer and Fmoc chemistry. All peptides were synthesized as amides and then converted to acetate salts. Peptides were purified by preparative reverse phase HPLC and shown to be >95% homogenous by analytical reverse phase HPLC. Amino acid content was confirmed by amino acid analysis. Before use, peptides were first dissolved in 1 volume of DMSO (Sigma) followed by addition of 99 volume of culture medium. The final concentration of DMSO in culture was not greater than 0.25%. […]
Spleen cells isolated from CBA mice were then stimulated (2×10^5/well) with anti-CD3 monoclonal antibody (Pharmingen, San Diego) at a final concentration of 0.1 to 1 μg/ml in 96-well, round-bottom microculture plates (Nunc, Denmark). bc peptides at various concentrations were added at the beginning of the culture. […] Cells were then harvested using a Filtermate 196 Harvester (Packard, Downers Grove, Ill.) and the degree of thymidine incorporation was measured using a TopCount Microplate Scintillation Counter (Packard).

[3] = system: LPS-induced septic shock in mice; experiment: LPS septic shock model, survival; format: in vivo, mouse; details: 20 mg/kg peptide in mannitol 16 h before 100 mg/kg LPS
Excerpt: Administration of LPS to mice provides an accepted animal model for septic shock (see Otterbein et al., Amer. J. Physiol. 272(2):1 (1997), Albrecht et al., Hepatology 26:1553-1559 (1997), Haziot et al., J. Immunol. 154:6529-6532 (1995) and Otterbein et al., Am. J. Respir. Cell Mol. Biol. 13:595-601 (1995)). To provide further evidence of the utility of bc peptides for the treatment of inflammatory responses and inflammatory conditions (such as septic shock), we tested the effect of bc peptides on the survival of mice following administration of LPS thereto. Specifically, mice were treated with 20 mg/kg of control peptide 2705 or bc peptide in mannitol or with mannitol alone. Sixteen hours after administration of the peptide in mannitol or mannitol alone, the mice were injected with 100 mg/kg LPS and survival of the mice was monitored twice daily.

[4] = biological target: T2, heme oxygenase (HO, hsp32) (Mus musculus, UniProt P14901); experiment: Heme oxygenase activity in spleen homogenate (bilirubin formation); format: biochemical; details: control peptide
T2 construct: Spleen homogenates were used as the source of HO for all activity measurements; from tissue; host or cells: mouse spleen homogenate
T2 sequence (P14901 1-289): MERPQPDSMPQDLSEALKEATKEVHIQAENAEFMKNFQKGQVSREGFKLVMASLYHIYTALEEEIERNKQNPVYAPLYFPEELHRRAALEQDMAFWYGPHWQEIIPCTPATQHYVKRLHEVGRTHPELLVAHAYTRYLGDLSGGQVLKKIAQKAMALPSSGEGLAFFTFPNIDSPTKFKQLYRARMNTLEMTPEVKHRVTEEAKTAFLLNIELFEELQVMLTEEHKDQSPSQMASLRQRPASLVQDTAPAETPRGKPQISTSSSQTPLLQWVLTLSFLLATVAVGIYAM
Experimental: The effect of the bc peptides on hsp32 (heme oxygenase) was evaluated by measuring heme oxygenase (HO) in the presence or absence of bc peptides. Specifically, mouse spleen samples were homogenized on ice in a Tris-Cl lysis buffer (pH 7.4) containing 0.5% Triton X-100 and protease inhibitors. Samples were frozen in small aliquots until use. Spleen homogenates were used as the source of HO for all activity measurements. Biliverdin reductase was purified from rat liver by the method described by Kutty and Maines, J. Biol Chem., 256:3956 (1981). HO activity was measured by mixing 100 μl of spleen homogenate with 0.8 mM NADPH, 0.8 mM glucose-6-phosphate, 1.0 unit G-6-P dehydrogenase, 1 mM MgCl2 and 10 μl of biliverdin reductase at 4° C. The reaction was initiated by the addition of Hemin (20 μl of 2.5 mM). The reaction mixture was incubated at 37° C. in the dark for 30 min. At the end of the incubation period, any insoluble material was centrifuged and supernatants were analyzed for bilirubin concentration by a modified procedure of Hillman and Beyer, Z. Klin. Chem. 5:92 (1981) (Sigma Diagnostics, kit #552). Controls included spleen samples in the absence of the NADPH generating system and all components of the reaction mixture in the absence of the spleen homogenates.

[5] = system: T-cell mediated lysis of EL4 target cells by CBA to B6 effector cells; experiment: Cytotoxic T-cell activity, 51Cr release assay; format: cell-based, mouse; details: concentrations up to 100 μg/ml, 4-hour incubation
Experimental: To assay the effect of peptides on cytotoxic T cell activity, CBA to B6 effector cells were prepared following a 6-day culture of 4×10^6 CBA spleen cells with 5×10^6 mitomycin-treated B6 spleen cells in wells of a 24 well plate (Nuncion Delta, Nunc, Denmark) in RPMI-1640 with 10% FBS. Effector cells were then harvested and washed. EL4 (H-2^b), a mouse lymphoma induced in C57BL/6N was used as target cells. Cultured EL4 cells were maintained and sub-cultured once every three days […] Effector (E) and target (T) cells were then added into V-shaped tissue culture plates (Nunc, Denmark) at E:T ratios of 3:1, 10:1, 30:1, 100:1, respectively. Peptides were diluted to the working concentrations with R-10 medium and added at the beginning of the 4-hour incubation period. For the determination of maximal release, 1% Triton X-100 was added to separate wells. Plates were then centrifuged for 2 min. to increase cellular contact before the 4-hour incubation period. After incubation, 75 μl supernatant from each well was collected and the amount of ^51Cr was counted using a TopCount Scintillation Counter. The degree of cell lysis was calculated using the formula below: [formula]

[6] = system: C57BL/6 neonatal heart allograft in CBA/J recipient mice; experiment: Heterotopic neonatal cardiac transplant into ear pinnae, direct injection into allograft; format: in vivo, mouse
Experimental: We next sought to determine if local delivery of bc peptides via plasmid-mediated gene transfer could extend in vivo transplant survival in a murine heterotopic cardiac transplant model. Specifically, C57BL/6 donor neonatal hearts were transplanted subcutaneously into the ear pinnae of CBA/J recipient mice, bc peptide, or 20 μg of plasmid DNA encoding the bc peptide of interest, was injected directly into the allograft at the time of transplantation. Survival of the allografts was determined by electrocardiogram monitoring and rejection was determined as the cessation of cardiac electrical activity. Graft survival is expressed in days (mean±SEM). Statistical significance was determined by an unpaired Student's t-test.

[7] = system: C57B1/6 heart allograft in CBA mice; experiment: Vascularized fully mismatched heterotopic heart allograft model; format: in vivo, mouse; details: intraperitoneal
Experimental: The immunosuppressive activity of the bc peptides was evaluated in a vascularized fully mismatched mouse heart allograft model. Specifically, abdominal heterotopic heart transplantation was performed as described previously by Ono and Lindsey, J. Thoracic Cardiovasc. Surg. 7:225 (1969)). CBA mice recipients of C57B1/6 hearts were treated daily with various doses of peptide following organ transplantation. Peptides were dissolved in DMSO and diluted in PBS (final DMSO concentration was 10%) before intraperitoneal administration. Animals were treated starting at the day of transplantation until day five or nine. Graft survival was monitored daily by direct palpation, and rejection was defined as termination of palpable cardiac contractility. The statistical significance of prolongation of heart allograft survival was calculated using the Mann-Whitney test.

T1 sequence (P19120 2-650 limits assumed): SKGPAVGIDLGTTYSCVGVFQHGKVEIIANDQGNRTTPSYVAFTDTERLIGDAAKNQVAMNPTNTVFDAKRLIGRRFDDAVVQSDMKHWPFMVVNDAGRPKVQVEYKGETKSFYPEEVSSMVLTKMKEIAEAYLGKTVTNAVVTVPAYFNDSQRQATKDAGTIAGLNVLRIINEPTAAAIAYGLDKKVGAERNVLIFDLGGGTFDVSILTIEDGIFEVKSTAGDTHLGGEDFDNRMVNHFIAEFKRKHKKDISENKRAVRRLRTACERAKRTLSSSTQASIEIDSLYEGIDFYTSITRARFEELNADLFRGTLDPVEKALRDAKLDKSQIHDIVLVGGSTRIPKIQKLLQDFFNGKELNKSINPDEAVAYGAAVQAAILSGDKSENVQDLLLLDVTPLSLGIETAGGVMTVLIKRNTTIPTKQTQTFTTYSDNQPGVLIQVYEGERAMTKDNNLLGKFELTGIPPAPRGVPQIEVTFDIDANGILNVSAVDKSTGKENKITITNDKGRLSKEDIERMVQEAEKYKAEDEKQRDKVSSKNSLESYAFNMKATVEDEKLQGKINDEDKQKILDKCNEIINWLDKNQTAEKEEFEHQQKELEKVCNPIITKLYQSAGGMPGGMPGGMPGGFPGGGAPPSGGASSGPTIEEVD

Molecule: RVNLPIALRY [D2RP, control peptide]
inhibition of the production of TNF-α [1]: no ability to inhibit

binding to hsc70 coated ELISA plates (recombinant hsc70; direct binding, streptavidin-HRP detection): dose dependent binding
Molecule: biotinylated-2702.75-84: peptide 2702.75-84 with biotin attached to the N-terminus via a six carbon spacer

Molecule: REDLRTLLRY [compound 2705]
effect on T-cell proliferation [2]: no effect
survival of mice after LPS [3]: died on day one
effect on HO activity [4]: inactive
effect on T-cell mediated target cell lysis [5]: no effect

Molecule: CC[C@H](C)[C@H](NC(=O)[C@H](CCCNC(=N)N)NC(=O)[C@H](CC(C)C)NC(=O)[C@H](CC(N)=O)NC(=O)[C@H](CCC(=O)O)NC(=O)[C@@H](N)CCCNC(=N)N)C(=O)N[C@@H](C)C(=O)N[C@@H](CC(C)C)C(=O)N[C@@H](CCCNC(=N)N)C(=O)N[C@@H](Cc1ccc(O)cc1)C(N)=O [2702.75-84, Arg-Glu-Asn-Leu-Arg-Ile-Ala-Leu-Arg-Tyr]
Graft survival (mean±SEM) ([6]; 1 μg peptide injected directly into the allograft, untreated controls 13.9±0.9): 13.3 ± 0.75 days
Graft survival (mean±SEM) ([6]; 400 μg peptide injected directly into the allograft): 22.0 ± 0.58 days
IC50 (recombinant hsc70; competition with 3 μM biotinylated-2702.75-84, 3 hrs room temperature, read-out: Half maximal inhibition (IC50) of binding of biotinylated-2702.75-84 to hsc70): 7 ± 3 µM
effect on transplant survival over the control treatment ([7]; 40 mg/kg/day): no observable effect
heart allograft survival ([7]; 80 mg/kg/day (days 0-9), PBS/DMSO controls 8±1.4 days): 10.7±2.6 days
